Assay results published in patent US20090202660A1, “Agents and Methods for Osteogenic Oxysterols Inhibition of Oxidative Stress on Osteogenic Cellular Differentiation” (The Regents of the University of California, priority 2005, published 2009).

What was measured:
[1] = tested on: M2-10B4 marrow stromal cells; assay: Matrix mineralization (45Ca incorporation assay, von Kossa staining); format: cell-based, mouse; conditions: M2 cells in osteogenic medium, 10-14 days
Procedure: (§1) Von Kossa and oil red O staining—Matrix mineralization in cell monolayers was detected by silver nitrate staining as previously described. Oil red O staining for detection of adipocytes was performed as previously described.
^45Ca incorporation assay—Matrix mineralization in cell monolayers was quantified using the ^45Ca incorporation assay as previously described.
After 14 days, mineralization was identified by a von Kossa staining, which appears black. FIG. 3C is a depiction of von Kossa staining of M2 cells exposed to various conditions. […]

M2 cells = assay: Troglitazone-induced adipogenesis, oil Red O staining and adipocyte count; format: cell-based, mouse; conditions: troglitazone 10 μM, oxysterols 10 μM, 8-10 days
Procedure: as §1
Test 1: M2 cells at 90% confluence were treated with vehicle (C), PPAR-γ activator, troglitazone 10 uM (Tro), alone or in combination with 10 μM oxysterols 20S-, 22R-, or 25S-hydroxycholesterol. After 8 days, adipocytes were identified by oil Red 0 staining and quantified by counting under a phase contrast microscope. FIG. 6A is a bar graph depicting the effect of oxysterols on reducing adipogenesis of MSC.
Test 2: (A) M2 cells at confluence were treated in RPMI containing 10% FBS with control vehicle or 10 μM troglitazone (Tro) in the absence or presence of 10 μM 20S or 22S oxysterols. After 10 days, adipocytes were visualized by oil Red O staining and quantified by light microscopy, shown in (B). […] (C) M2 cells were treated at confluence with 10 μM Tro, alone or in combination with 10 μM 20S oxysterol. After 10 days, total RNA was isolated and analyzed for lipoprotein lipase (LPL), adipocyte P2 gene (aP2) or 18S rRNA expression by Northern blotting as described (Ref). Data from densitometric analysis of the Northern blot is shown in (D) as the average of duplicate samples, normalized to 18S rRNA.

[2] = tested on: lipoprotein lipase (LPL) and adipocyte P2 gene (aP2); assay: Northern blotting for adipogenic genes in M2 cells; format: cell-based, mouse; conditions: 10 μM Tro with 10 μM 20S, 10 days
Procedure: RNA isolation and Northern blot analysis—Following treatment of cells under appropriate experimental conditions, total RNA was isolated using the RNA isolation kit from Stratagene (La Jolla, Calif., U.S.A.). Total RNA ([…]) was run on a 1% agarose/formaldehyde gel and transferred to Duralon-UV membranes (Strategene, Calif., U.S.A.) and cross-linked with UV light. The membranes were hybridized overnight at 60 degree C. with ^32P-labeled mouse osteocalcin cDNA probe, mouse lipoprotein lipase (LPL), mouse adipocyte protein 2 (aP2) PCR-generated probes, human 28S or 18S rRNA probes obtained from Geneka Biotechnology (Montreal, Quebec, Canada) and Maxim Biotech (San Francisco, Calif., U.S.A.), respectively. […] The extent of gene induction was determined by densitometry.
Test 2: (A) M2 cells at confluence were treated in RPMI containing 10% FBS with control vehicle or 10 μM troglitazone (Tro) in the absence or presence of 10 μM 20S or 22S oxysterols. After 10 days, adipocytes were visualized by oil Red O staining and quantified by light microscopy, shown in (B). […] After 10 days, total RNA was isolated and analyzed for lipoprotein lipase (LPL), adipocyte P2 gene (aP2) or 18S rRNA expression by Northern blotting as described (Ref). […]

ERK1 and ERK2 = assay: Western blot for native and phosphorylated ERK in M2 cells; format: cell-based, mouse; conditions: 5 μM, 1, 4 or 8 hours
Procedure: Western blot analysis—After treatments, cells were lysed in lysis buffer, protein concentrations determined using the Bio-Rad protein assay (Hercules, Calif. U.S.A.), and SDS-PAGE performed as previously described. Probing for native and phosphorylated ERKs was performed as previously reported.
(A) M2 cells at confluence were pretreated for four hours with RPMI containing 1% FBS, followed by treatment with control vehicle or 5 μM 20S oxysterol for 1, 4, or 8 hours. Next total cell extracts were prepared and analyzed for levels of native or phosphorylated ERK (pERK) using specific antibodies as previously described. Data from a representative of four experiments are shown, each treatment shown in duplicate samples. (B) M2 cells at confluence were pretreated for 2 hours with control vehicle (C) or 20 μM PD98059 (PD) in osteogenic medium as previously described. Next, a combination of 22R and 20S oxysterols (RS, 5 μM each) were added to appropriate wells as indicated. After 10 days of incubation, matrix mineralization was quantified by the ^45Ca incorporation assay as previously described. […] (C) M2 cells at confluence were pretreated for 2 hours with 20 µM PD98059 (PD) in RPMI containing 5% FBS. […] After 10 days, adipocytes were visualized by oil Red O staining and quantified by light microscopy as previously described. […]

[3] = tested on: M2-10B4 marrow stromal cells; assay: Colorimetric alkaline phosphatase (ALP) activity assay on whole cell extracts
Procedure: Alkaline phosphatase activity assay: Colorimetric alkaline phosphatase (ALP) activity assay on whole cell extracts was performed as previously described.
Test 1: M2 cells at confluence were treated with control vehicle (C), or 10 µM oxysterols, in an osteogenic medium consisting of RPMI 1640 to which 10% fetal bovine serum (FBS), 50 µg/ml ascorbate and 3 mM beta-glycerophosphate (□GP) were added. After 3 days of incubation, alkaline phosphatase (ALP) activity was determined in cell homogenates by a colorimetric assay.
M2 cells at confluence were treated in osteogenic medium with control vehicle (C) or a combination of 22R and 20S oxysterols, at the indicated concentrations. ALP activity was measured after 3 days as described above.
Test 2: M2 cells were grown in RPMI medium containing 10% fetal bovine serum (FBS). At confluence, the cells were treated in RPMI containing 5% FBS plus ascorbate at 50 μg/ml and β-glycerophosphate at 3 mM to induce osteoblastic differentiation. Adipogenic differentiation was induced by treating the cells in growth medium plus 10˜M troglitazone. A vehicle (C) or oxysterol treatment was applied to cells in a variety of doses (in μM): 20S-Hydroxycholesterol, 25-Hydroxycholesterol, 22R-Hydroxycholesterol; 22S-Hydroxycholesterol; 7-ketocholesterol. Cells were always treated at 90% confluence. After 4 days, alkaline phosphatase activity was determined in whole cell lysates and normalized to protein. Alternatively, MSC cultures were prepared and treated with oxysterols as described above. Cells were treated at 90% confluence with the combination of 22R-Hydroxycholesterol and 20S-Hydroxycholesterol, each at 5 μM, for 4 to 96 hours. The oxysterols where removed and fresh media without oxysterols was added for a total duration of 96 hours. Alkaline phosphatase activity was measured in whole cell extracts and normalized to protein.
Cells were treated with the oxysterols (5 μM) for 4 days after which they were collected and analyzed by colorimetric assay for alkaline phosphatase activity. Results from a representative experiment are shown as the average of quadruplicate determination ±SD.

osteocalcin mRNA = assay: Northern blotting for osteocalcin mRNA in M2 cells; format: cell-based, mouse; conditions: M2 cells in osteogenic medium, up to 14 days
Procedure: RNA isolation and Northern blot analysis—Following treatment of cells under appropriate experimental conditions, total RNA was isolated using the RNA isolation kit from Stratagene (La Jolla, Calif., U.S.A.). Total RNA ([…]) was run on a 1% agarose/formaldehyde gel and transferred to Duralon-UV membranes (Strategene, Calif., U.S.A.) and cross-linked with UV light. The membranes were hybridized overnight at 60 degree C. with ^32P-labeled mouse osteocalcin cDNA probe, mouse lipoprotein lipase (LPL), mouse adipocyte protein 2 (aP2) PCR-generated probes, human 28S or 18S rRNA probes obtained from Geneka Biotechnology (Montreal, Quebec, Canada) and Maxim Biotech (San Francisco, Calif., U.S.A.), respectively. The PCR products were generated using primer sets synthesized by Invitrogen (Carlsbad, Calif., U.S.A.) with the following specifications: mouse aP2 gene (accession no. M13261); sense (75-95) 5′-[…]-3′, antisense (362-383) 5′-[…]-3′, generating a PCR product of 309 base pairs. Mouse LPL (accession no. XM—134193); sense (1038-1058) 5′-[…]-3′, antisense (1816-1836) 5′-[…]-3′, generating a PCR product of 799 base pairs. […] Following hybridization, the blots were washed twice at room temperature with 2×SSC+0.1% SDS, and then twice at 60 degree C. with 0.5×SSC+0.1% SDS, and exposed to X-ray film. The extent of gene induction was determined by densitometry.
After 4 and 8 days, total RNA from duplicate samples was isolated and analyzed for osteocalcin (Osc) and 28S rRNA expression by Northern blotting as described. FIG. 3E is a radiogram of Northern blotting for osteocalcin mRNA in M2 cells exposed to a control or combination of oxysterols for 4 or 8 days. FIG. 3F is a bar graph depicting the relative demsometric units of osteocalcin mRNA in M2 cells exposed to a control or combination of oxysterols for 4 or 8 days. Data from densitometric analysis of the Northern blot is shown in (F) as the average of duplicate samples, normalized to 28S rRNA.
RNA Isolation and Northern Blot Analysis—Total RNA was isolated using the RNA isolation kit from Stratagene (La Jolla, Calif., USA). Northern blotting and analysis of osteocalcin mRNA and 18S rRNA expression was performed as previously described (23).

CC(C)CCC[C@](C)(O)[C@H]1CC[C@H]2[C@@H]3CC=C4C[C@@H](O)CC[C@]4(C)[C@H]3CC[C@@]21C [20S-hydroxycholesterol]
mineralization [1]: unable to induce | inhibition of adipogenesis (M2 cells): inhibited adipogenesis | expression of the adipogenic genes LPL and aP2 [2]: inhibition of the expression | activation of ERK1 and ERK2 (ERK1 and ERK2): sustained activation | alkaline phosphatase activity (induction) ([3]; M2 cells in osteogenic medium, oxysterols 0.5-10 μM, 3-4 days): induced alkaline phosphatase activity | alkaline phosphatase activity ([3]; M2 cells, ligands used at 10 μM, control 18±2, ±SD): 140±12 activity units/mg protein | osteocalcin gene expression (osteocalcin mRNA): unable to induce
